According to publication PMC8179437 (Chemical Science, 2021):

Key:
TDP1 [1] = target: T1, TDP1 (Homo sapiens, UniProt Q9NUW8); assay: TDP1 gel-based in vitro assay; assay type: biochemical; conditions: Table 1 and main text
TDP1 [2] = target: T1, TDP1; assay: TDP1 Lineweaver–Burk analysis; assay type: biochemical

T1 sequence (Q9NUW8 whole entry): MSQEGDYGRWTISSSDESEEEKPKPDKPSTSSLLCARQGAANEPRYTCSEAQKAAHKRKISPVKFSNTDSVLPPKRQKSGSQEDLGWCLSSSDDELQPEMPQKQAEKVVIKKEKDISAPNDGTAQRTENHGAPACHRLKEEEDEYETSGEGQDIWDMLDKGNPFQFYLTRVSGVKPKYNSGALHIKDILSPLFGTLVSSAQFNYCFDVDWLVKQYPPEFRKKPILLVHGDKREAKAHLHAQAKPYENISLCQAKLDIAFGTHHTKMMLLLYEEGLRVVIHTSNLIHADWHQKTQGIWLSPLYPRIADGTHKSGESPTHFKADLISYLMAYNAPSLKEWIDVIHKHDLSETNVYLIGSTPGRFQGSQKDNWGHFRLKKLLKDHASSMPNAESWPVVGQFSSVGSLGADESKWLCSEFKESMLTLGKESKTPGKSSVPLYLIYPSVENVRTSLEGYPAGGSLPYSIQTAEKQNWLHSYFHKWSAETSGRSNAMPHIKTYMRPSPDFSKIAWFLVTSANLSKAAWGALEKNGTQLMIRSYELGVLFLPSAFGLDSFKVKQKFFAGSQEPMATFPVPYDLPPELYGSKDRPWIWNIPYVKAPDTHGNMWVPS

Row | SMILES | IC50 (TDP1 [1]) [µM] | mode of inhibition (TDP1 [2])
1 | c1ccc(Nc2c(-c3ccccc3)nc3ccccn23)cc1 [Compound 6t, N,2-Diphenylimidazo[1,2-a]pyridin-3-amine] | > 100 | 
2 | O=C(O)c1ccc(Nc2c(-c3ccccc3)nc3cnccn23)cc1 [Compound 7b, 4-((2-Phenylimidazo[1,2-a]pyrazin-3-yl)amino)benzoic acid] |  | competitive
3 | O=C(O)c1ccc(Nc2c(-c3ccccc3)nc3ccccn23)cc1 [Compound 8a, 4-((2-Phenylimidazo[1,2-a]pyridin-3-yl)amino)benzoic acid] |  | competitive
4 | O=C(O)c1ccc(Nc2c(-c3ccc(O)cc3)nc3ccccn23)cc1 [Compound 8f, 4-((2-(4-Hydroxyphenyl)imidazo[1,2-a]pyridin-3-yl)amino)benzoic acid] | > 100 | 
5 | O=C(O)c1ccc(Nc2c(-c3ccc(C(=O)O)cc3)nc3ccccn23)cc1 [Compound 8h, 4-(3-((4-Carboxyphenyl)amino)imidazo[1,2-a]pyridin-2-yl)benzoic acid] | > 100 | 
6 | CS(=O)(=O)c1ccc2nc(-c3ccccc3)c(Nc3ccc(C(=O)O)cc3)n2c1 [Compound 8q, 4-((6-(Methylsulfonyl)-2-phenylimidazo[1,2-a]pyridin-3-yl)amino)benzoic acid] | 1.8 | 
7 | CS(=O)(=O)c1ccc2nc(-c3ccc(-c4ccccc4)cc3)c(Nc3ccc(C(=O)O)cc3)n2c1 [Compound 8r, 4-((2-([1,1'-Biphenyl]-4-yl)-6-(methylsulfonyl)imidazo[1,2-a]pyridin-3-yl)amino)benzoic acid] | 9.95 | 
8 | O=C(O)c1ccc(Cn2c(-c3ccccc3)nc3ccccc32)cc1 [Compound 9a, 4-((2-Phenyl-1H-benzo[d]imidazol-1-yl)methyl)benzoic acid] | > 100 | 
9 | O=C(O)c1ccc(Cn2c(-c3ccccc3)cc3ccccc32)cc1 [Compound 9b, 4-((2-Phenyl-1H-indol-1-yl)methyl)benzoic acid] | > 100 | 
10 | O=C(O)c1ccc(Nc2c(-c3ccccc3)nc3cnccn23)cc1C(=O)O [Compound 10a, 4-((2-Phenylimidazo[1,2-a]pyrazin-3-yl)amino)phthalic acid] |  | competitive
11 | O=C(O)c1ccc(Nc2c(-c3ccccc3)nc3ccccn23)cc1C(=O)O [Compound 10b, 4-((2-Phenylimidazo[1,2-a]pyridin-3-yl)amino)phthalic acid] |  | competitive
